Data taken from the supplement of paper PMC10477900.
Counter-ions that a name gives are not always drawn.

How the values were obtained:
HCT116 [1] = test: viability inhibition vs untreated; higher = more cytotoxic; conditions: 72 h
HCT116 [2] = conditions: 72 h
Protocol: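 HCT116 control and MTA1-KO (CRISPR) HCT116 cells were seeded in 384-well plates (800 cells/well), treated 16 h later with 237 metabolism-related anticancer drugs at five doses (10 uM, 2 uM, 400 nM, 80 nM, 16 nM) for 72 h, two replicates; viability by CCK8. Values are % inhibition of viability relative to untreated cells, plus fitted IC50.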

SMILES | viability inhibition (HCT116 [1]; genotype: MTA1-KO, 16 nM) [%] | viability inhibition (HCT116 [1]; genotype: MTA1-KO, 80 nM) [%] | viability inhibition (HCT116 [1]; genotype: MTA1-KO, 400 nM) [%] | viability inhibition (HCT116 [1]; genotype: MTA1-KO, 2000 nM) [%] | viability inhibition (HCT116 [1]; genotype: MTA1-KO, 10000 nM) [%] | viability inhibition (HCT116 [1]; genotype: control, 16 nM) [%] | viability inhibition (HCT116 [1]; genotype: control, 80 nM) [%] | viability inhibition (HCT116 [1]; genotype: control, 400 nM) [%] | viability inhibition (HCT116 [1]; genotype: control, 2000 nM) [%] | viability inhibition (HCT116 [1]; genotype: control, 10000 nM) [%] | IC50 (HCT116 [2]; genotype: MTA1-KO) [µM] | IC50 (HCT116 [2]; genotype: control) [µM]
Cc1cc(C2CCCCC2)n(O)c(=O)c1 [Ciclopirox] | -13.6 | 8.1 | -8.33 | 25.7 | 64.7 | 9.52 | 6.31 | 24 | 77 | 113 | 4.96 | 1.02
Cc1c(CN2CCN(c3cccc(C(F)(F)F)c3)CC2)cc(-c2ccccc2)n1NC(=O)c1ccncc1 [Sudoterb free base] | -13.3 | -15.8 | -16 | -17 | 44.1 | -4.96 | 1.24 | -11 | -15 | -4.96 | > 10 | > 10
NS(=O)(=O)C#Cc1ccccc1 [Pifithrin-μ] | -6.33 | -6.69 | -11.6 | -13.4 | -5.71 | 12.9 | -14.1 | -16.5 | -18.1 | 20.2 | > 10 | > 10
Cc1cc(-n2cccc2)c(S(C)(=O)=O)cc1C(=O)N=C(N)N [Eniporide] | -5.44 | 3.61 | 2.87 | 16.5 | 60.9 | 1.06 | -2.91 | -4.47 | 3.58 | 8.84 | 6.22 | > 10
O=C(O)CCCCC(CCSCc1ccccc1)SCc1ccccc1 (stereo not given) [CPI613] | -15.7 | -15.1 | -22.2 | -25.4 | -7.62 | 7.59 | -3.09 | -6.23 | -6.02 | 8.56 | > 10 | > 10
NC(=O)N/N=C/c1ccc([N+](=O)[O-])o1 [Furacilin] | -10.7 | -2.24 | -4.15 | 1.42 | 5.25 | 6.06 | 11.2 | 22.1 | 21.4 | -6.53 | > 10 | > 10
CCN(CC)C(=S)SSC(=S)N(CC)CC [Disulfiram] | -26.6 | -25.2 | -25.3 | -20.1 | -18.3 | -6.96 | -11.2 | -6.9 | -8.44 | -2.88 | > 10 | > 10
O=C(O)CNC(=O)c1c(O)c2ccccc2n(Cc2ccccc2)c1=O [IOX 2] | 15.5 | -17.5 | -20.5 | -22 | 9.66 | -6.02 | 3.87 | -7.43 | -4.74 | -0.498 | > 10 | > 10
CC(=O)Nc1nnc(S(N)(=O)=O)s1 [Acetazolamide] | -8.41 | -9.41 | -15.4 | -8.8 | 6.99 | -4.74 | -13.5 | -4.54 | -3.32 | -0.433 | > 10 | > 10
NC(N)=NCCC[C@H](N)C(=O)O [L-arginine monohydrochloride] | -2.61 | -19.3 | -11.5 | -6.84 | 12.2 | -3.45 | -8.59 | 1.36 | 1.49 | 23.5 | > 10 | > 10
CC(C)(Sc1cc(C(C)(C)C)c(O)c(C(C)(C)C)c1)Sc1cc(C(C)(C)C)c(O)c(C(C)(C)C)c1 [Probucol] | -5.9 | -11 | -1.83 | -5.06 | -0.265 | 6.44 | 11.6 | -2.62 | 16.6 | 9.78 | > 10 | > 10
NS(=O)(=O)c1cc2c(cc1Cl)NC=NS2(=O)=O [Chlorothiazide] | -10.2 | -0.674 | -4.5 | -3.61 | -8.39 | 3.92 | 0.542 | 0.606 | -0.861 | 5.64 | > 10 | > 10
N#C/C(=C\c1cn(-c2ccccc2)c2ccccc12)C(=O)O [UK5099] | 12.9 | -2.58 | -5.75 | -0.99 | 14 | 8.77 | 3.74 | 4.2 | 20.2 | 40 | > 10 | > 10
Nc1nonc1C(=Nc1ccc(F)c(Cl)c1)NO | 11.1 | 13.3 | 16.9 | 23.6 | 36.3 | 10.4 | 19 | -4.25 | 11 | 9.01 | > 10 | > 10
CCCCCCCCCCCCc1ccc(S(=O)(=O)Nc2nncs2)cc1 [PHT427] | -19.3 | -22.1 | -13 | -17.1 | -3.56 | 20.4 | -3.89 | -1.76 | -0.669 | 9.06 | > 10 | > 10
COc1ccc(-c2ccc3c(N4CCOCC4)nc(N4C[C@@H](C)O[C@@H](C)C4)nc3n2)cc1CO | 14.6 | 18.1 | 36.5 | 68.5 | 82.3 | 13.2 | 20.4 | 21.5 | 59.4 | 72.9 | 0.753 | 2.24
CC(C)c1c(C(=O)Nc2ccccc2)c(-c2ccccc2)c(-c2ccc(F)cc2)n1CC[C@@H](O)C[C@@H](O)CC(=O)O [Atorvastatin Calcium] | -2.27 | -15.2 | -21.3 | -22.7 | -6.12 | 6.18 | -8.85 | -7.43 | -3.65 | 17 | > 10 | > 10
Cc1ccc2nc(CN(CCN(Cc3nc4ccc(C)cc4[nH]3)Cc3nc4ccc(C)cc4[nH]3)Cc3nc4ccc(C)cc4[nH]3)[nH]c2c1 | 0.589 | -11.3 | -3.97 | 0.541 | 76.8 | 6.37 | 14.6 | 2.85 | 20.1 | 64.1 | 6.48 | 7.39
COc1ccc(-c2ccc3ncc4c(c3c2)n(-c2ccc(N3CCNCC3)c(C(F)(F)F)c2)c(=O)n4C)cn1 [BGT226] | 3.91 | 56.3 | 83 | 97.4 | 106 | -4.27 | 60.1 | 90.7 | 99 | 116 | 0.0773 | 0.0713
COc1ccc([C@@H]2OC[C@H]3[C@@H]2CO[C@@H]3c2ccc(O[C@@H]3O[C@H](CO)[C@@H](O)[C@H](O)[C@H]3O)c(OC)c2)cc1OC [Forsythin] | 5.1 | -3.89 | -0.379 | 2.87 | 27.7 | 8.22 | 24 | 15.4 | -3.75 | 24.5 | > 10 | > 10
C/C=C/c1cc(OC)c(OC)cc1OC [alpha-Asarone] | -3.55 | -23.5 | -15.1 | -10.5 | 9.18 | -6.36 | -8.84 | -15.6 | -8.42 | -0.859 | > 10 | > 10
Cc1ccccc1C(C(=O)NC1CCCCC1)N(C(=O)Cn1ccnc1C)c1cccc(F)c1 (stereo not given) [AGI5198] | 7.58 | 7.91 | 5.76 | 8.57 | 37.4 | -3.24 | -17.7 | -10.7 | -12.3 | 2.37 | > 10 | > 10
CNCc1cc(-c2ccccc2F)n(S(=O)(=O)c2cccnc2)c1 [Vonoprazan fumarate] | 12 | -19.8 | -19.3 | -21.7 | -12.1 | -12.5 | -10.5 | -14.4 | -16 | 11.8 | > 10 | > 10
COc1ccc(Cc2cnc(N)nc2N)cc1OC [Diaveridine] | 9.72 | -12.4 | -14.2 | -12.8 | 8.55 | 7.02 | -9.3 | -5.19 | -12.6 | 10.2 | > 10 | > 10
Nc1ncnc2c1c(-c1cnc3[nH]ccc3c1)nn2C1CCCC1 [PP121] | 14.3 | 12.8 | 43.5 | 90.3 | 111 | 10.8 | 16.8 | 25.2 | 86.4 | 104 | 0.675 | 0.874
NS(=O)(=O)c1ccc(S(=O)(=O)Nc2cccc3c(Cl)c[nH]c23)cc1 [Indisulam] | -0.89 | 30.5 | 59.8 | 90.3 | 96.6 | -5.81 | -7.51 | 10.8 | 90.9 | 90.2 | 0.129 | 0.445
Cc1ccc2nc(N)[nH]c(=O)c2c1Sc1ccncc1 [Nolatrexed] | 8.71 | 2.94 | -1.21 | 1.75 | 76 | -21.6 | -20.5 | 4.76 | -22.2 | -11.3 | 9.66 | > 10
CC(C)(CCCCCC(O)CCCCCC(C)(C)C(=O)O)C(=O)O [ETC1002] | 2.14 | -10.3 | -6.64 | -17.1 | -9.91 | 10.7 | -0.834 | -5.92 | -6.48 | -5.51 | > 10 | > 10
CC[C@H](C)C(=O)O[C@H]1C[C@H](O)C=C2C=C[C@H](C)[C@H](CC[C@@H](O)C[C@@H](O)CC(=O)O)[C@H]21 [Pravastatin sodium] | 9.21 | -16.3 | -12.8 | -12.2 | -1.55 | 10.2 | -15.3 | -11.6 | -6.15 | 6.05 | > 10 | > 10
CCC(C)(C)C(=O)O[C@H]1C[C@@H](C)C=C2C=C[C@H](C)[C@H](CC[C@@H]3C[C@@H](O)CC(=O)O3)[C@H]21 [Simvastatin] | – | – | – | – | – | – | – | – | – | – | > 10 | > 10
